Results reported in US7998984B2, “2-pyridone derivatives for the treatment of disease or condition in which inhibition of neutrophil elastase activity is beneficial” (AstraZeneca AB, priority 2006, dated 2011).

Each compound was assayed against T1, Human Neutrophil Elastase (HNE) (Homo sapiens, UniProt P08246) (assay: Human Neutrophil Elastase Quenched-FRET Assay). Conditions: HNE 1.7 nM, substrate MeOSuc-AAPV-AMC 100 μM, 15 min pre-incubation, 30 min incubation at room temperature; read-out: Inhibition of Human Neutrophil Elastase IC50.
T1 construct: Human Neutrophil Elastase (HNE) purified from serum; purchased Calbiochem 324681; host or cells: purified from human serum (so in the source)
T1 sequence (P08246 30-247 limits assumed): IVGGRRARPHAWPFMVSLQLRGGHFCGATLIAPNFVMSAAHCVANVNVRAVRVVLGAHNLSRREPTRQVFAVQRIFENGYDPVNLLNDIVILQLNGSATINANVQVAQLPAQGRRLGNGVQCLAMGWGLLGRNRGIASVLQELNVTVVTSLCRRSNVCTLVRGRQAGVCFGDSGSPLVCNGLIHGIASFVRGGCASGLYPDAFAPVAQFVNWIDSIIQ
Format: biochemical
Experimental: Human Neutrophil Elastase Quenched-FRET Assay
HNE was stored in 50 mM sodium acetate (NaOAc), 200 mM sodium chloride (NaCl), pH 5.5 with added 30% glycerol at −20° C. […] The substrate was stored in dimethyl sulphoxide (DMSO) at −20° C. […] The assay buffer constitution was: 100 mM Tris(hydroxymethyl)aminomethane (TRIS) (pH 7.5) and 500 mM NaCl. The enzyme and the compounds were incubated at room temperature for 15 minutes. Then 30 μl substrate in assay buffer was added. The assay was incubated for 30 minutes at room temperature. […] The assay was then stopped by adding 60 μl stop solution (140 mM acetic acid, 200 mM sodium monochloroacetate, 60 mM sodium acetate, pH 4.3).

`CNC(=O)c1cc(-c2nc(N)sc2-c2ccc(Cl)cc2)c(C)n(-c2cccc(C(F)(F)F)c2)c1=O` [Example 3, 5-[2-Amino-5-(4-chlorophenyl)-1,3-thiazol-4-yl]-N,6-dimethyl-2-oxo-1-[3-(trifluoromethyl)-phenyl]-1,2-dihydropyridine-3-carboxamide] and `CNC(=O)c1cc(-c2nc(N)sc2-c2ccc(C#N)cc2)c(C)n(-c2cccc(C(F)(F)F)c2)c1=O` [Example 5, 5-[2-Amino-5-(4-cyanophenyl)-1,3-thiazol-4-yl]-N,6-dimethyl-2-oxo-1-[3-(trifluoromethyl)phenyl]-1,2-dihydropyridine-3-carboxamide] are the same in IC50: 260 pM for the first, 260 pM for the second.

First: CNC(=O)c1cc(-c2ocnc2-c2ccc(Cl)cc2)c(C)n(-c2cccc(C(F)(F)F)c2)c1=O [Example 4, 5-[4-(4-Chlorophenyl)-1,3-oxazol-5-yl]-N,6-dimethyl-2-oxo-1-[3-(trifluoromethyl)phenyl]-1,2-dihydropyridine-3-carboxamide]
Second: CNC(=O)c1cc(-c2ccnn2-c2ccc(C#N)cc2)c(C)n(-c2ccc(F)c(Cl)c2)c1=O [Example 6, 1-(3-Chloro-4-fluorophenyl)-5-[1-(4-cyanophenyl)-1H-pyrazol-5-yl]-N,6-dimethyl-2-oxo-1,2-dihydropyridine-3-carboxamide]
The IC50 of the first is 1.7-fold higher: 1600 pM for the first, 930 pM for the second. The second is the more potent here.
